pIC50: −log10 of the molar value. Each block holds one compound with its values, some of them ahead of it.
Target: HPK1 (MAP4K1) (Homo sapiens, UniProt Q92918)
Test: FRET Assay for HPK1 (MAP4K1): one step binding assay, displacement of labeled tracer
Details: for inhibition at 1 µM: 1 μM compound; for inhibition at 1 µM / inhibition at 10 µM: FRET ratio 665/620, percent of control; for inhibition at 10 µM: 10 μM compound; for pIC50: dose response curve, nonlinear regression
Summary of the method: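 Percent inhibition at 1.0 and 10.0 μM and IC50 by nonlinear regression were derived from loss of FRET signal versus control. The signal runs from Eu-anti-GST antibody (4 nM) bound to 10 nM HPK1 kinase to Alexa Fluor 647 Kinase Tracer 222 (20 nM), added after a 15-min on-ice compound pre-incubation. Binding then proceeded 1 h at room temperature in HEPES pH 7.5 buffer with 10 mM MgCl2, 1 mM EGTA, 0.01% Brij-35 and 3% DMSO.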

HPK1 (MAP4K1), sequence (Q92918 whole entry): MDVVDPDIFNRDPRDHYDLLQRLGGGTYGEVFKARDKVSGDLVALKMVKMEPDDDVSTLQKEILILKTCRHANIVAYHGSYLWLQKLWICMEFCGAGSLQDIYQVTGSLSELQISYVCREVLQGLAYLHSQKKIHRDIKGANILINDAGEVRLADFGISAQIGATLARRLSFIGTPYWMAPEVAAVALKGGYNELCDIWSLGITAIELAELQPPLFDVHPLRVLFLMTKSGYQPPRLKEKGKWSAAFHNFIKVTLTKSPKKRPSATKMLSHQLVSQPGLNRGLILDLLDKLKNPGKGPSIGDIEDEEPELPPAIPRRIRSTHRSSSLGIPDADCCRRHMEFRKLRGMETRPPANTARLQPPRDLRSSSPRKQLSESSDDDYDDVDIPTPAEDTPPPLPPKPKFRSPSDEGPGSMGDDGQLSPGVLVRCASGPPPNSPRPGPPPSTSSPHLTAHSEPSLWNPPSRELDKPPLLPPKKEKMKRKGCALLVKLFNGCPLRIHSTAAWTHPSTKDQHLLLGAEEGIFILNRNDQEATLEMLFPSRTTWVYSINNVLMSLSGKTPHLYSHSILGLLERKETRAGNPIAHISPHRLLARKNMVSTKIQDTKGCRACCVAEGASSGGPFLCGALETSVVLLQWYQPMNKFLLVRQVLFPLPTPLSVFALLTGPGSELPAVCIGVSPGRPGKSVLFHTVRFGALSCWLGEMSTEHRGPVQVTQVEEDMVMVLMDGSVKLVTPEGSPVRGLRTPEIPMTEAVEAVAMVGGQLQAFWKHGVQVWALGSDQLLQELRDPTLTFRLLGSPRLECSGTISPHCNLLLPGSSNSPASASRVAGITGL

Structure (SMILES): C/C(Nc1ccn(C)n1)=C1/C(=O)Nc2cnc(-c3cccnc3C)cc21 [Example 162, (Z)-3-(1-((1-Methyl-1H-pyrazol-3-yl)amino)ethylidene)-5-(2-methylpyridin-3-yl)-1H-pyrrolo[2,3-c]pyridin-2(3H)-one]
inhibition at 1 µM: 76.2%
inhibition at 10 µM: 92.9%
pIC50: 7.00 to 7.30

Structure (SMILES): C/C(Nc1ncn(C)n1)=C1/C(=O)Nc2cnc(-c3cnccc3C)cc21 [Example 163, (Z)-3-(1-((1-Methyl-1H-1,2,4-triazol-3-yl)amino)ethylidene)-5-(4-methylpyridin-3-yl)-1H-pyrrolo[2,3-c]pyridin-2(3H)-one]
inhibition at 1 µM: 77.3%
inhibition at 10 µM: 81.5%
pIC50: > 7.30

Structure (SMILES): C/C(Nc1cnn(C)c1)=C1/C(=O)Nc2cnc(-c3c(C)cccc3F)cc21 [Example 164, (Z)-5-(2-Fluoro-6-methylphenyl)-3-(1-((1-methyl-1H-pyrazol-4-yl)amino)ethylidene)-1H-pyrrolo[2,3-c]pyridin-2(3H)-one]
inhibition at 1 µM: 60.9%
inhibition at 10 µM: 75.2%
pIC50: 7.00 to 7.30

Structure (SMILES): C/C(Nc1cnn(CC[C@@H](C)O)c1)=C1/C(=O)Nc2cnc(-c3cnccc3C)cc21 [Example 165, (R,Z)-3-(1-((1-(3-Hydroxybutyl)-1H-pyrazol-4-yl)amino)ethylidene)-5-(4-methylpyridin-3-yl)-1H-pyrrolo[2,3-c]pyridin-2(3H)-one]
inhibition at 1 µM: 79.3%
inhibition at 10 µM: 71.8%
pIC50: > 7.30

Structure (SMILES): C/C(Nc1cnn(CCC(C)(C)O)c1)=C1/C(=O)Nc2cnc(-c3cnccc3C)cc21 [Example 166, (Z)-3-(1-((1-(3-Hydroxy-3-methylbutyl)-1H-pyrazol-4-yl)amino)ethylidene)-5-(4-methylpyridin-3-yl)-1H-pyrrolo[2,3-c]pyridin-2(3H)-one]
inhibition at 1 µM: 62.9%
inhibition at 10 µM: 75.7%
pIC50: > 7.30

Structure (SMILES): C/C(Nc1cnn([C@@H](C)C#N)c1)=C1/C(=O)Nc2cnc(-c3cnccc3C)cc21 [Example 167, (S,Z)-2-(4-((1-(5-(4-Methylpyridin-3-yl)-2-oxo-1H-pyrrolo[2,3-c]pyridin-3(2H)-ylidene)ethyl)amino)-1H-pyrazol-1-yl)propanenitrile]
inhibition at 1 µM: 69.2%
inhibition at 10 µM: 67.5%
pIC50: > 7.30

Structure (SMILES): C/C(Nc1ccn(CC2(O)CC2)n1)=C1/C(=O)Nc2cnc(-c3cnccc3C)cc21 [Example 168, (Z)-3-(1-((1-((1-Hydroxycyclopropyl)methyl)-1H-pyrazol-3-yl)amino)ethylidene)-5-(4-methylpyridin-3-yl)-1H-pyrrolo[2,3-c]pyridin-2(3H)-one]
inhibition at 1 µM: 67.6%
inhibition at 10 µM: 76.7%
pIC50: > 7.30

Structure (SMILES): C/C(Nc1ccn(CC[C@@H](C)O)n1)=C1/C(=O)Nc2cnc(-c3cnccc3C)cc21 [Example 169, (R,Z)-3-(1-((1-(3-Hydroxybutyl)-1H-pyrazol-3-yl)amino)ethylidene)-5-(4-methylpyridin-3-yl)-1H-pyrrolo[2,3-c]pyridin-2(3H)-one]
inhibition at 1 µM: 71.4%
inhibition at 10 µM: 84.3%
pIC50: > 7.30

Structure (SMILES): C/C(Nc1cc(C)n(CC(F)F)n1)=C1/C(=O)Nc2cnc(-c3cnccc3C)cc21 [Example 170, (Z)-3-(1-((1-(2,2-Difluoroethyl)-5-methyl-1H-pyrazol-3-yl)amino)ethylidene)-5-(4-methylpyridin-3-yl)-1H-pyrrolo[2,3-c]pyridin-2(3H)-one]
inhibition at 1 µM: 70.1%
inhibition at 10 µM: 70.3%
pIC50: > 7.30

Structure (SMILES): COc1cccc(F)c1-c1cc2c(cn1)NC(=O)/C2=C(/C)Nc1cnn([C@H](C)C#N)c1 [Example 171, (R,Z)-2-(4-((1-(5-(2-Fluoro-6-methoxyphenyl)-2-oxo-1H-pyrrolo[2,3-c]pyridin-3(2H)-ylidene)ethyl)amino)-1H-pyrazol-1-yl)propanenitrile]
inhibition at 1 µM: 63.4%
inhibition at 10 µM: 77%
pIC50: 7.00 to 7.30

Structure (SMILES): COc1cccc(F)c1-c1cc2c(cn1)NC(=O)/C2=C(/C)Nc1cnn([C@@H](C)C#N)c1 [Example 172, (S,Z)-2-(4-((1-(5-(2-Fluoro-6-methoxyphenyl)-2-oxo-1H-pyrrolo[2,3-c]pyridin-3(2H)-ylidene)ethyl)amino)-1H-pyrazol-1-yl)propanenitrile]
inhibition at 1 µM: 79.2%
inhibition at 10 µM: 80.5%
pIC50: > 7.30

Structure (SMILES): COc1cccc(F)c1-c1cc2c(cn1)NC(=O)/C2=C(/C)Nc1cnn(C[C@H](C)O)c1 [Example 173, (S,Z)-5-(2-Fluoro-6-methoxyphenyl)-3-(1-((1-(2-hydroxypropyl)-1H-pyrazol-4-yl)amino)ethylidene)-1H-pyrrolo[2,3-c]pyridin-2(3H)-one]
inhibition at 1 µM: 66.8%
inhibition at 10 µM: 77.4%
pIC50: > 7.30

Structure (SMILES): C/C(Nc1cnn(CC2(O)CC2)c1)=C1/C(=O)Nc2cnc(-c3cnccc3C)cc21 [Example 174, (Z)-3-(1-((1-((1-Hydroxycyclopropyl)methyl)-1H-pyrazol-4-yl)amino)ethylidene)-5-(4-methylpyridin-3-yl)-1H-pyrrolo[2,3-c]pyridin-2(3H)-one]
inhibition at 1 µM: 55.1%
inhibition at 10 µM: 64.8%
pIC50: > 7.30

Structure (SMILES): C/C(Nc1nn(C)c2ccccc12)=C1/C(=O)Nc2cnc(-c3cnccc3C)cc21 [Example 175, (Z)-3-(1-((1-Methyl-1H-indazol-3-yl)amino)ethylidene)-5-(4-methylpyridin-3-yl)-1H-pyrrolo[2,3-c]pyridin-2(3H)-one]
inhibition at 1 µM: 72.6%
pIC50: > 7.30

Continued, values first:

inhibition at 1 µM: 75.4%
inhibition at 10 µM: 62.3%
pIC50: > 7.30
Structure (SMILES): C/C(Nc1cnn(CC[C@H](C)O)c1)=C1/C(=O)Nc2cnc(-c3cnccc3C)cc21 [Example 176, (S,Z)-3-(1-((1-(3-Hydroxybutyl)-1H-pyrazol-4-yl)amino)ethylidene)-5-(4-methylpyridin-3-yl)-1H-pyrrolo[2,3-c]pyridin-2(3H)-one]

inhibition at 1 µM: 69.4%
inhibition at 10 µM: 66.6%
pIC50: > 7.30
Structure (SMILES): C/C(Nc1ccc(OC2CCN(C(=O)C3CC3)CC2)nc1)=C1/C(=O)Nc2cnc(-c3cnccc3C)cc21 [Example 177, (Z)-3-(1-((6-((1-(Cyclopropanecarbonyl)piperidin-4-yl)oxy)pyridin-3-yl)amino)ethylidene)-5-(4-methylpyridin-3-yl)-1H-pyrrolo[2,3-c]pyridin-2(3H)-one]

inhibition at 1 µM: 68%
inhibition at 10 µM: 77.8%
pIC50: > 7.30
Structure (SMILES): C/C(Nc1ncc(C)s1)=C1/C(=O)Nc2cnc(-c3cnccc3C)cc21 [Example 178, (Z)-5-(4-Methylpyridin-3-yl)-3-(1-((5-methylthiazol-2-yl)amino)ethylidene)-1H-pyrrolo[2,3-c]pyridin-2(3H)-one]

inhibition at 1 µM: 66.9%
inhibition at 10 µM: 77.6%
pIC50: > 7.30
Structure (SMILES): C/C(Nc1cc(C)[nH]n1)=C1/C(=O)Nc2cnc(-c3cnccc3C)cc21 [Example 179, (Z)-3-(1-((5-Methyl-1H-pyrazol-3-yl)amino)ethylidene)-5-(4-methylpyridin-3-yl)-1H-pyrrolo[2,3-c]pyridin-2(3H)-one]

inhibition at 1 µM: 73%
inhibition at 10 µM: 76.2%
pIC50: > 7.30
Structure (SMILES): CCS(=O)(=O)n1nc(N/C(C)=C2\C(=O)Nc3cnc(-c4cnccc4C)cc32)cc1C [Example 180, (Z)-3-(1-((1-(Ethylsulfonyl)-5-methyl-1H-pyrazol-3-yl)amino)ethylidene)-5-(4-methylpyridin-3-yl)-1H-pyrrolo[2,3-c]pyridin-2(3H)-one]

inhibition at 1 µM: 76.8%
inhibition at 10 µM: 80.8%
pIC50: > 7.30
Structure (SMILES): C/C(Nc1cc(C)n(CC(C)(C)O)n1)=C1/C(=O)Nc2cnc(-c3cnccc3C)cc21 [Example 181, (Z)-3-(1-((1-(2-Hydroxy-2-methylpropyl)-5-methyl-1H-pyrazol-3-yl)amino)ethylidene)-5-(4-methylpyridin-3-yl)-1H-pyrrolo[2,3-c]pyridin-2(3H)-one]

inhibition at 1 µM: 78.8%
inhibition at 10 µM: 73%
pIC50: > 7.30
Structure (SMILES): CCn1nc(N/C(C)=C2\C(=O)Nc3cnc(-c4cnccc4C)cc32)cc1C [Example 182, (Z)-3-(1-((1-Ethyl-5-methyl-1H-pyrazol-3-yl)amino)ethylidene)-5-(4-methylpyridin-3-yl)-1H-pyrrolo[2,3-c]pyridin-2(3H)-one]

inhibition at 1 µM: 72.5%
inhibition at 10 µM: 79.5%
pIC50: > 7.30
Structure (SMILES): C/C(Nc1cc(C)n(CCC(C)(C)O)n1)=C1/C(=O)Nc2cnc(-c3cnccc3C)cc21 [Example 183, (Z)-3-(1-((1-(3-Hydroxy-3-methylbutyl)-5-methyl-1H-pyrazol-3-yl)amino)ethylidene)-5-(4-methylpyridin-3-yl)-1H-pyrrolo[2,3-c]pyridin-2(3H)-one]

inhibition at 1 µM: 70.3%
inhibition at 10 µM: 75.2%
pIC50: > 7.30
Structure (SMILES): C/C(Nc1cc(C)n(C[C@H](C)O)n1)=C1/C(=O)Nc2cnc(-c3cnccc3C)cc21 [Example 184, (S,Z)-3-(1-((1-(2-Hydroxypropyl)-5-methyl-1H-pyrazol-3-yl)amino)ethylidene)-5-(4-methylpyridin-3-yl)-1H-pyrrolo[2,3-c]pyridin-2(3H)-one]

inhibition at 1 µM: 73.2%
inhibition at 10 µM: 73.9%
pIC50: > 7.30
Structure (SMILES): C/C(Nc1cc(C)n(C(F)F)n1)=C1/C(=O)Nc2cnc(-c3cnccc3C)cc21 [Example 185, (Z)-3-(1-((1-(Difluoromethyl)-5-methyl-1H-pyrazol-3-yl)amino)ethylidene)-5-(4-methylpyridin-3-yl)-1H-pyrrolo[2,3-c]pyridin-2(3H)-one]

inhibition at 1 µM: 70.9%
inhibition at 10 µM: 72.2%
pIC50: > 7.30
Structure (SMILES): C/C(Nc1cc(C)n(CC(C)C)n1)=C1/C(=O)Nc2cnc(-c3cnccc3C)cc21 [Example 186, (Z)-3-(1-((1-Isobutyl-5-methyl-1H-pyrazol-3-yl)amino)ethylidene)-5-(4-methylpyridin-3-yl)-1H-pyrrolo[2,3-c]pyridin-2(3H)-one]
